Test results as given in PMC2729173 (Cancer research, 2009).
Where a name gives a salt, the structure may show the parent alone. Read-outs that look alike come from different tables or passages of the source.

What was measured:
BCRP = biological target: T1, BCRP (Homo sapiens, UniProt Q9UNQ0); assay type: cell-based; conditions: for intracellular topotecan lactone concentration: topotecan 500 ng/mL
T1 sequence (Q9UNQ0 1-655): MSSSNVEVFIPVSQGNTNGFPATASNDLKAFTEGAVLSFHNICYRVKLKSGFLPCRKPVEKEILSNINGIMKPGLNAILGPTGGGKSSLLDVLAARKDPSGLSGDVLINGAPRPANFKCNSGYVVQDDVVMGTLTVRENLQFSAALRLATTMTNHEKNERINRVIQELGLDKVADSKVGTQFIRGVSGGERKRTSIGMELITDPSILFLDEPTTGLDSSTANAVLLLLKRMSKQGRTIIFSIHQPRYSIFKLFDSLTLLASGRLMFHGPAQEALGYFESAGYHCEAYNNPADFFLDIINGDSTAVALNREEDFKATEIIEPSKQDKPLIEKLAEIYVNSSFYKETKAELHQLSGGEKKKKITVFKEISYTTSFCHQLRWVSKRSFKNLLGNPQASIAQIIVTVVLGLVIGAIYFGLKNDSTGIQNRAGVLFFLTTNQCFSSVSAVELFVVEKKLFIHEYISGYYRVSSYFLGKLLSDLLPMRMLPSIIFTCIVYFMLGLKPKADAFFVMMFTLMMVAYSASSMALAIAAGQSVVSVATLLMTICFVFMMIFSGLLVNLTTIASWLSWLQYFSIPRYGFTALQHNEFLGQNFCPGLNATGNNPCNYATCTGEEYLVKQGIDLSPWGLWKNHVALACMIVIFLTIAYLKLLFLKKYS

[1] = rat; cited from earlier work
[2] = Topotecan lactone plasma protein binding; assay type: in vitro ADME, mice; conditions: mouse, unbound fraction of plasma topotecan lactone, mean ±SD
[3] = Intracerebral microdialysis of ventricular CSF; conditions: topotecan 4 mg/kg i.v., three-compartment model
[4] = Intracerebral microdialysis of brain parenchymal ECF; conditions: topotecan 4 mg/kg i.v.; for ECF CLin-to-CLout ratio of unbound topotecan lactone: three-compartment model; for Kp: mouse, brain ECF (striatum microdialysate) vs plasma, intravenous, 4 mg/kg, ECF-to-plasma AUC ratio of unbound topotecan lactone (AUCu,ECF/AUCu,plasma), mean ±SD; for topotecan lactone ECF concentrations: Mdr1a/b−/− mice

## CCC(O)(C(=O)O)c1cc2n(c(=O)c1CO)Cc1cc3c(CN(C)C)c(O)ccc3nc1-2 (centres unmarked) [Topotecan carboxylate]
BCRP; pH 6
  topotecan carboxylate detection in cells: not detected
BCRP; pH 8, data not shown
  difference in intracellular topotecan carboxylate accumulation between Saos2-pcDNA and Saos2-BCRP cells: no difference

## CCCNCCOc1ccc(NC(=O)c2c[nH]c3c2C(=O)CCC3)cc1F [CP-615,003]
[1]
  accumulation in CSF relative to ECF: 7 fold

## CC[C@@]1(O)C(=O)OCc2c1cc1n(c2=O)Cc2cc3c(CN(C)C)c(O)ccc3nc2-1 [Topotecan, Topotecan hydrochloride]
BCRP; Saos2-BCRP cells, 1-min incubation, pH 6
  intracellular topotecan lactone concentration: 0.043±0.005 ng/μg protein
BCRP; Saos2-BCRP cells, 30-min incubation, pH 6
  intracellular topotecan lactone concentration: 0.026 ± 0.004 ng/µg
BCRP; Saos2-pcDNA control cells, 1-min incubation, pH 6
  intracellular topotecan lactone concentration: 0.063±0.01 ng/μg protein
BCRP; Saos2-pcDNA control cells, 30-min incubation, pH 6
  intracellular topotecan lactone concentration: 0.039 ± 0.003 ng/µg
[2]; FVB, wild-type mice
  fraction unbound: 0.301
[2]; Bcrp1−/− mice
  fraction unbound: 0.309
[2]; Mdr1a/b−/− mice
  fraction unbound: 0.292
[2]; Mdr1a/b−/−Bcrp1−/− mice
  fraction unbound: 0.275
[3]; Bcrp1−/− mice
  vCSF CLin-to-CLout ratio of unbound topotecan lactone: 1.59 ± 0.16
[3]; FVB wild-type mice
  vCSF CLin-to-CLout ratio of unbound topotecan lactone: 3.01 ± 0.15
[3]; Mdr1a/b−/− mice
  vCSF CLin-to-CLout ratio of unbound topotecan lactone: 2.57 ± 0.17
[3]; Mdr1a/b−/−Bcrp1−/− mice
  vCSF CLin-to-CLout ratio of unbound topotecan lactone: 0.86 ± 0.04
[4]; Bcrp1−/− mice
  ECF CLin-to-CLout ratio of unbound topotecan lactone: 0.42 ± 0.06
[4]; Bcrp1−/−, Bcrp1−/− mice
  Kp: 0.42 ± 0.06
[4]; FVB wild-type mice
  ECF CLin-to-CLout ratio of unbound topotecan lactone: 0.36 ± 0.06
[4]; FVB, Mdr1a/b−/−Bcrp1−/− mice
  Kp: 0.89 ± 0.07
[4]; listed as Topotecan lactone
  topotecan lactone ECF concentrations: below detectable limits
[4]; listed as topotecan lactone
  topotecan lactone ECF concentrations: below the lower limit of detection
[4]; Mdr1a/b−/−Bcrp1−/− mice
  ECF CLin-to-CLout ratio of unbound topotecan lactone: 0.89 ± 0.07
[4]; Mdr1a/b−/−Bcrp1−/−, Mdr1a/b−/−Bcrp1−/− mice
  Kp: 0.88 ± 0.07
